Data published in patent US11034702B2, “Thienoisoquinolines and their derivatives for the treatment of cancer” (VALORBEC, SOCIÉTÉ EN COMMANDITE, priority 2016, dated 2021).

How the values were obtained:
[1] = system: MCF-7 (mammary gland carcinoma) cells; experiment: IC50 (viability) in MCF-7 cells; type: cell-based; conditions: Homo sapiens, MCF7
Experimental: (§1) 19 variants with different structural modifications have been made. […] In particular, it is shown that C75 causes death in multiple cancer cells with IC50 values in the 100 nM range, including breast cancers (MCF7, BT549), lung cancer (A549), colorectal cancer (HCT116) in addition to HeLa cells (cervical cancer).

A549 cells [2] = experiment: Mitotic arrest (percentage of cells in mitosis) in A549 cells; type: cell-based, human; conditions: A549, within one population doubling time
Experimental: (§2) FIG. 2A) is a line graph showing the percentage of HCT116 (p53−/−) cells, A549 cells, HeLa cells and H1299 cells in mitosis after treatment with various concentrations of C75 for one population doubling time. All of the cell lines show an increase in the proportion of mitotic cells after treatment with 200 nM C75. The bars indicate standard deviation. […] While the mitotic spindles were not dramatically altered by C75 in HFF1 cells, they were monopolar (as shown) or fragmented in the other cell types. […] The mitotic spindles were more strongly fragmented after C75 treatment in these cells vs. the cells in FIG. 2B). […] While mitotic spindles recovered bipolarity after removing nocodazole, they remained multipolar after removing C75. FIG. 2F) is a series of time-lapse images of a live HeLa cell expressing GFP:tubulin after treatment with C75 as shown in 2D) and 2E). The scale bar for all cells is 10 μm. FIG. 2G) is a schematic showing the putative target for C75. […]
(§3) C75 was also tested for efficacy in different cancer cell lines. […] To further assess the role of C75 in affecting centrosomes, HeLa cells were treated with C75 for a short period of time (5 minutes), then C75 was removed and the cells were analyzed for spindle phenotypes (schematic in FIG. 2D). […]

HCT116 spheroids = experiment: HCT116 multicellular tumour spheroids; type: cell-based
Experimental: FIG. 5A) is a series of images of HeLa multicellular tumor spheroids (spheroids) treated with control (500 nM C87), empty nanoparticles, 500 nM C75 and 250 nM C75-loaded nanoparticles over 3 days. […] The scale bar for all images is 100 μm. FIG. 5B) is a series images of HeLa spheroids after three days of treatment with control (500 nM C87) or 500 nM C75. The spheroids were stained for fluorescein diacetate (to detect live cells) and propidium iodide (to detect dead cells). […] The scale bar for all images is 100 μm. FIG. 5C) is a series of images of HCT116 spheroids treated with control (1 μM C87), 500 nM C75, 1 μM C75 and 500 nM C75-loaded nanoparticles over 5 days. […] The borders of the spheroids treated with 1 μM C75 or with 500 nM C75-loaded nanoparticles became highly irregular, indicative of loss of spheroid integrity. FIG. 5D) is a series images of HCT116 spheroids after six days of treatment with control (1 μM C87) or 1 μM C75. The spheroids were stained for fluorescein diacetate (live cells) and propidium iodide (dead cells). […] FIG. 5E) is a line graph showing the growth in surface area (%) of HCT116 spheroids treated with control (1 μM C87), 500 nM C75 and 1 μM C75 after six days. FIG. 5F) is a series of images of A549 spheroids treated with control (750 nM C87), 500 nM C75, 1 μM C75 and 500 nM C75-loaded nanoparticles over 5 days. […] The scale bar for all images is 100 μm. […]

BT-549 cells = experiment: Mitotic spindle phenotype in BT-549 cells; type: cell-based, human; conditions: BT-549, 300 nM, 6-8 hours
Experimental: as §2, §3

[3] = system: MCF-10A (mammary gland fibrocystic disease) non-cancer cells; experiment: IC50 (viability) in MCF-10A non-cancer cells; type: cell-based; conditions: Homo sapiens, MCF10A non-cancer cells
Experimental: as §1

[4] = system: HCT116 (colorectal cancer) cells; experiment: IC50 (cell death) in HCT116 cells; type: cell-based; conditions: Homo sapiens, HCT-116; stated jointly for MCF7, BT549, A549, HCT116 and HeLa; HCT116 not in Table 3; read-out: IC50 values (death in multiple cancer cells)
Experimental: as §1

A549 cells [5] = experiment: Mitotic spindle phenotype in A549 cells; type: cell-based, human; conditions: A549, 300 nM, 6-8 hours
Experimental: as §2, §3

HCT116 (p53-/-) cells = experiment: Mitotic arrest (percentage of cells in mitosis) in HCT116 cells; type: cell-based; conditions: HCT116, within one population doubling time
Experimental: as §2, §3

With `COc1ccc(S(=O)(=O)N2Cc3ccccc3-c3sc(Br)cc32)cc1` [Compound C75] the IC50 [1] was 101 nM, the “concentration causing mitotic arrest” value (A549 cells [2]) was 100 to 200 nM and the “effect on growth of HCT116 spheroids” value (HCT116 spheroids; 500 nM or 1 μM C75, 500 nM C75-loaded nanoparticles, over 5 days) was “regress the growth”. For the same compound, the “live/dead staining of spheroids (fluorescein diacetate / propidium iodide)” value (HCT116 spheroids; HCT116 spheroids, 1 μM, six days) was “much smaller after C75-treatment, but still contained live cells”, the mitotic spindle phenotype (BT-549 cells) was “most of the spindles were severely fragmented” and the IC50 [3] was 309 nM. The IC50 [4] was roughly 100 nM, the mitotic spindle phenotype (A549 cells [5]) was “most of the spindles were severely fragmented” and the “concentration causing mitotic arrest” value (HCT116 (p53-/-) cells) was 100 to 200 nM.
